These results are taken from US20230312550A1, “N-(2-(4-CYANOTHIAZOLIDIN-3-YL)-2-OXOETHYL)-QUINOLINE-4-CARBOXAMIDES” (AstraZeneca AB, priority 2020, published 2023).

Data set [1] has as its target human dipeptidylpeptidase 7 (hDPP7) (Homo sapiens (Human), UniProt Q9UHL4). Kind of data set: hDPP7 inhibition assay. The class given is biochemical. As to conditions: hDPP7 15 nM, Ala-Pro-amino-methylcoumarin 5 μM, n = 1. The procedure:
Compounds were tested in a biochemical inhibition assay using human dipeptidylpeptidase 7 (hDPP7) enzyme at 15 nM FAC (BPS Bioscience, #80070) and the substrate Ala-Pro-amino-methylcoumarin (BPS Bioscience, #80305) at 5 μM FAC. The enzymatic reactions were conducted in duplicate at rt for 30 min in 50 μL DPP assay buffer (BPS Bioscience, #80300). Compound solutions (in DMSO) at 10 CR, 3 fold dilution series were prepared in assay buffer ten-fold higher than the final concentration, and 5 μL of the dilution was added to a 50 μL reaction so that the highest compound concentration was 100 μM FAC and the concentration of DMSO was 1% in all wells. The plates were read on a Tecan Infinite M1000 microplate reader with excitation 340 nm and emission 460 nm. Data were analyzed in Graph Pad Prism. IC50 values were determined by plotting % inhibition versus log compound concentration and using a one site dose response model. Raw data signals were normalized using 1% DMSO as 0% control and no enzyme as 100% inhibitor control.

Data set [2] deals with FAP (Mus musculus (Mouse), UniProt P97321). The data set can be described thus: FAP plasma inhibition assay, mouse plasma. As to conditions: mouse plasma diluted 1:67, Ala-Pro-AMC 75 μM. It counts as biochemical. In a few lines: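 K2EDTA plasma served as enzyme source, human diluted 1:40 and mouse 1:67, in PBS with 0.1% BSA. Compounds ran as a 10-point 3-fold series from 500 nM final, in duplicate, 40 min at rt in the dark, with fluorescence read against a pre-substrate blank. IC50 came from % inhibition versus log concentration.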

Data set [3] has as its target Fibroblast Activation Protein alpha (FAP) (Mus musculus (Mouse), UniProt P97321). The data set can be described thus: in vivo.
Experimental: The effect of test compound on FAP enzyme activity in mouse plasma was evaluated in an enzymatic assay using the Fibroblast Activation Protein alpha (FAP) specific fluorogenic substrate dipeptide-Coumarin, Ala-Pro-AMC, (ARI-3144).
Male C57Bl/6 mice (Charles River, Germany), 8 weeks of age, were single housed in a temperature-controlled room with a 12-hour light/dark cycle (06:00-18:00 light). The mice had ad libitum access to water and rodent chow diet (R70, Lactamin, Kimstad, Sweden), and were acclimated for 5 days upon arrival. After acclimation, all mice received a single oral dose of test compound (3 or 10 mg/kg). Blood samples for whole blood compound exposure measurements were taken at 0.25, 0.5, 1, 2, 4, 8 and 24 h post oral dosing. Samples were collected in EDTA capillary tubes (20 μL, K2E, REF 19.447) and were transferred to a 96-deep well plate (NUNC, Thermo Discher Scientific) and stored at −20° C. until further analyses were performed. Blood samples for plasma FAP enzyme activity measurements were taken at 0, 0.25, 0.5, 1, 2, 8 and 24 h post dosing. 25 μL of whole blood was collected in EDTA Microvette® CB 300 (K2E, REF 16.444.100) tubes, and were centrifuged at 4,000×g for 5 min. 10 μL of plasma was then transferred to PCR tubes and stored at −20° C. until further analysis was performed. All blood samples were taken by vena saphena puncture.
Recombinant human FAP (PB-17-1837, construct PL-17-0278, cd33-FAP (27-757)-6His, Mw85926 Da) was used as a standard for this assay. […] The plates were read on a Beckman Paradigm reader with excitation 360 nm and emission 465 nm. Fluorescence measurements were performed with kinetic read every 5 minutes for 60 min at room temperature. Data were analyzed in Excel (IDBS XLfit Add-In) using a Linear Regression (y=k*x+m) model to prepare a human recombinant FAP standard curve.
On the day of the assay, plasma was diluted (1:2) to 20 μL volume in buffer (PBS, 0.1% BSA) and 7.5 μL was transferred to the assay plate (384-well black, fluotrack PS, Greiner 781076). Ala-Pro-AMC (stock solution in 10 mM DMSO) was diluted in buffer (PBS, 0.1% BSA) to 150 μM concentration (180 μL stock solution to 12 mL buffer) and 7.5 μL added to the assay plate followed by a pipetting mix. The plates were read on a Beckman Paradigm reader with excitation 360 nm and emission 465 nm. Fluorescence measurements were performed with kinetic read every 5 minutes for 60 minutes at room temperature. As noted above, FAP cleaves Ala-Pro-AMC to release free AMC which is measured as a fluorescent signal.
The in vivo potency IC50 of each test compound was then estimated by relating the plasma exposure C of the compound to target engagement E in plasma using the following equation:
where E0 is the FAP baseline in plasma prior to dosing and Imax is the maximum effect of the compound. Data from each target engagement experiment were considered separately and therefore slightly different estimates of FAP baseline for each compound were obtained. […] The parameter estimation was done in Phoenix WinNonlin Certara build 8.1.0.3530 with the algorithm ‘Naïve pooled’ as parameter estimation method.
The target in data set [4] is Prolyl endopeptidase, Prolyl Oligopeptidase (hPREP) (Homo sapiens (Human), UniProt P48147). Kind of data set: hPrep inhibition assay. The class given is biochemical. As to conditions: hPREP 0.6 nM, Z-Gly-Pro-amino-methylcoumarin 50 μM; read-out: PREP IC50. In a few lines:
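Recombinant human PREP at 0.6 nM final with Z-Gly-Pro-AMC substrate at 50 μM final in Tris-HCl pH 7.5, NaCl, Triton X-100, glutathione; 15 min rt preincubation then 20 min rt reaction in dark. AMC fluorescence (ex 340/em 460 nm); IC50 from one-site dose-response fit of % inhibition.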

The target of data set [5] is hFAP (M39-A757) (Homo sapiens (Human), UniProt Q12884). The data set can be described thus: hFAP binding assay (surface plasmon resonance). As to conditions: SPR, 20° C.; for hFAP Binding assay k(off) / hFAP Binding assay k(on): single cycle kinetics; for Kd: n = 1 or geometric mean n = 2-4.
A short description of data set [6]: Metabolic stability in rat hepatocytes (rHep). As to conditions: n = 1 or geometric mean of n = 2-3.
Data set [7] can be described thus: Metabolic stability in human liver microsomes (HLM). As to conditions: human.
Experimental: Metabolic stability in HLM was measured as described in J Comput Aided Mol Des 2015, 29, 795.
Data set [8] in a line: Kinetic solubility. As to conditions: kinetic from dmso stock.
Experimental: Kinetic solubility was measured as described in Comput Aided Mol Des 2015, 29, 795.
Data set [9] addresses human Fibroblast activation protein alpha (hFAP) (Homo sapiens (Human), UniProt Q12884). The data set can be described thus: hFAP inhibition assay (tight binders). Also: hFAP 2.4 pM. As to conditions: Ala-Pro-AMC 20 μM, n = 1 or geometric mean n = 2-6. It counts as biochemical. The procedure: The plates were read on a PHERAstar® reader with excitation 340 nm and emission 460 nm. Data were analyzed in Genedata Screener®. IC50 values were determined by plotting % inhibition versus log compound concentration and using a one site dose response model.

For data set [10], the target named is T1, FAP (Homo sapiens (Human), UniProt Q12884). Kind of data set: hFAP inhibition assay. It counts as biochemical. As to conditions: hFAP […], Ala-Pro-AMC 20 μM; n = 1 or geometric mean n = 2-3. A digest of the protocol: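 Human FAP (0.48 nM) in 100 mM Tris HCl, 100 mM NaCl, 0.05% Chaps, pH 7.4 was preincubated 15 min at rt in the dark with compounds (10-point, 3-fold series from 50 μM). Substrate was added from a 40 μM solution, then 30 min at rt. Fluorescence read at ex 340/em 460 nm; IC50 from one-site dose-response fit of % inhibition.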
Target sequence in this assay (Q12884 38-760): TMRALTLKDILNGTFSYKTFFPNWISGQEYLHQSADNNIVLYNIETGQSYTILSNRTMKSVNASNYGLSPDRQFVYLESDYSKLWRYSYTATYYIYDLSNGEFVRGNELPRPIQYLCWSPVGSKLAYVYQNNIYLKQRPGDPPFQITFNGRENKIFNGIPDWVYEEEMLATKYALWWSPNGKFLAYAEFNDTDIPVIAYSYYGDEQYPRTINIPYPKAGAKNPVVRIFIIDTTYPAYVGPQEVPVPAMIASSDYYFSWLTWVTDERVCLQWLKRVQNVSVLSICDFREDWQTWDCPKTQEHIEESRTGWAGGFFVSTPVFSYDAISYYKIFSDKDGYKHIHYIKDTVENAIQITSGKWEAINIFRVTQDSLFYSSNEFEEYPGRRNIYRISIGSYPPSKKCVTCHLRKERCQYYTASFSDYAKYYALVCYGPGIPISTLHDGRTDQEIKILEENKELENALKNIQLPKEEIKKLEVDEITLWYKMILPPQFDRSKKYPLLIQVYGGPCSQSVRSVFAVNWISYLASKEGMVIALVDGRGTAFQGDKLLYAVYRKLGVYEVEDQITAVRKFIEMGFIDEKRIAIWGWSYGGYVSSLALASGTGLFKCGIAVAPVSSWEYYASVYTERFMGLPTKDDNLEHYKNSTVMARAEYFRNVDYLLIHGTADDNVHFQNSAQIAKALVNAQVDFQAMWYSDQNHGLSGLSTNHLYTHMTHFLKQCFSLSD

Data set [11] has as its target T1, FAP. The data set can be described thus: FAP plasma inhibition assay, human plasma. The class given is biochemical. As to conditions: human plasma diluted 1:40, Ala-Pro-AMC 75 μM. The procedure: This assay was adapted from the method described in Example 237 for detection of FAP target engagement enzyme activity in plasma. Plasma (anticoagulant K2EDTA) was used as the enzyme source: Human plasma (Pooled from AZ Biobank), Mouse plasma (AZ AST Biobank), and Cynomolgus plasma (BioIVT, #NHP00PLK2FNN, lot CYN222895). 384-Well black fluotrack PS plates (Greiner 781076) were used. 20 μL diluted plasma (Cynomolgus and Human plasma dilution 1:40, Mouse plasma dilution 1:67) in buffer (PBS, 0.1% BSA) was added to 0.6 μL compounds (in DMSO). Compounds were tested using 10 CR, 3 fold dilution series from 500 nM FAC. Two replicates for each assay point were run on the same plate. A fluorescence blank read was taken before substrate addition. […] Plates were incubated for 40 min at rt in the dark. […] IC50 values were determined by plotting % inhibition versus log compound concentration.
Target sequence in this assay (Q12884 24-760): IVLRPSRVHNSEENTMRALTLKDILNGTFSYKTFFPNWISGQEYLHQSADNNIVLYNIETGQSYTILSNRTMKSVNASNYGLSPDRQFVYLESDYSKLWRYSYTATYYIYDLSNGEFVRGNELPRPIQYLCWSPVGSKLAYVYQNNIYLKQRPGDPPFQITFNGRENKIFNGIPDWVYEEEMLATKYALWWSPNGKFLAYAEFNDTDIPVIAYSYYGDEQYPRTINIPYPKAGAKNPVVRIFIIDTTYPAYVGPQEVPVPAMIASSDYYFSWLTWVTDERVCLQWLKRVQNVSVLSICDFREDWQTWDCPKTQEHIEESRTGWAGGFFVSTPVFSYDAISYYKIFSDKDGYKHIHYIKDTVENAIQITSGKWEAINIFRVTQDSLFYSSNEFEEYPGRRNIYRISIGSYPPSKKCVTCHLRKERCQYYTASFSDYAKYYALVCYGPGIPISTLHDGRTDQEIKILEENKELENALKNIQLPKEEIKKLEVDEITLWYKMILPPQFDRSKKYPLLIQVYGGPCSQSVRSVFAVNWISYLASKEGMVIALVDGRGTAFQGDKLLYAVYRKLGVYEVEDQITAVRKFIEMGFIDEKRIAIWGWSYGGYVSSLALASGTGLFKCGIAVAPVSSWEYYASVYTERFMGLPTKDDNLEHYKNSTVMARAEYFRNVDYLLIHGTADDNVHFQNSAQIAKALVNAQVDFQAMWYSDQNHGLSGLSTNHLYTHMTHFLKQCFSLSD

Data set [12] is described as follows: Caco-2 cell permeability. As to conditions: human.
Experimental: Caco-2 cell permeability was measured as described in Mol Pharm 2017, 14, 1601.
The nature of data set [13]: Metabolic stability in human hepatocytes (hHep). The class given is in vitro ADME. As to conditions: n = 1 or geometric mean of n = 2.
The mark [14] stands for this setting: HLM CLint, n = 1 or average of n = 2-3.
Where [15] appears, read: Solubility, kinetic solubility, n = 1 or average of n = 2-3.

Values after ≈ are worked out from the molar mass of the structure shown.

Fibroblast Activation Protein alpha (FAP), sequence (P97321 24-761): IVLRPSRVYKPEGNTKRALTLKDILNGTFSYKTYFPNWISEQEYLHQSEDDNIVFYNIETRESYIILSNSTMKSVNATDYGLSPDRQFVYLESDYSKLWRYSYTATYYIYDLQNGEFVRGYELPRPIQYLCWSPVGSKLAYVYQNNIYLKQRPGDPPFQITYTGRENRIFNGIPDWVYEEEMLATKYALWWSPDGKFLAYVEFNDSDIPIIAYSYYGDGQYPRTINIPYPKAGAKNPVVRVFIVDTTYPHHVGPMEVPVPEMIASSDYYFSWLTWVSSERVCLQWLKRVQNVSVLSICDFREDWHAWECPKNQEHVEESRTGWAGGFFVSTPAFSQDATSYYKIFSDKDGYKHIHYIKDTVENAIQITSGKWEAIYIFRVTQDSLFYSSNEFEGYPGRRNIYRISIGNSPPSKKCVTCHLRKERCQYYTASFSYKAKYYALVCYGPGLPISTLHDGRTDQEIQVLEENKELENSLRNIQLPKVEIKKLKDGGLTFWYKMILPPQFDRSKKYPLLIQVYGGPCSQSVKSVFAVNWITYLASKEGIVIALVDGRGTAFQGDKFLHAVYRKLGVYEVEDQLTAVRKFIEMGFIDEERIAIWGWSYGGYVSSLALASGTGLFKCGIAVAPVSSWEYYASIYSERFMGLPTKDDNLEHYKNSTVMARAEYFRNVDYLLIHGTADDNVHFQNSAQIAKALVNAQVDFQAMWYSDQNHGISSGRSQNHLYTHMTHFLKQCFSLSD
FAP (Mus musculus (Mouse), UniProt P97321), sequence (P97321 24-761): as above
human Fibroblast activation protein alpha (hFAP), sequence (Q12884 38-760): as the sequence (Q12884 38-760) above
hFAP (M39-A757), sequence (Q12884 39-757): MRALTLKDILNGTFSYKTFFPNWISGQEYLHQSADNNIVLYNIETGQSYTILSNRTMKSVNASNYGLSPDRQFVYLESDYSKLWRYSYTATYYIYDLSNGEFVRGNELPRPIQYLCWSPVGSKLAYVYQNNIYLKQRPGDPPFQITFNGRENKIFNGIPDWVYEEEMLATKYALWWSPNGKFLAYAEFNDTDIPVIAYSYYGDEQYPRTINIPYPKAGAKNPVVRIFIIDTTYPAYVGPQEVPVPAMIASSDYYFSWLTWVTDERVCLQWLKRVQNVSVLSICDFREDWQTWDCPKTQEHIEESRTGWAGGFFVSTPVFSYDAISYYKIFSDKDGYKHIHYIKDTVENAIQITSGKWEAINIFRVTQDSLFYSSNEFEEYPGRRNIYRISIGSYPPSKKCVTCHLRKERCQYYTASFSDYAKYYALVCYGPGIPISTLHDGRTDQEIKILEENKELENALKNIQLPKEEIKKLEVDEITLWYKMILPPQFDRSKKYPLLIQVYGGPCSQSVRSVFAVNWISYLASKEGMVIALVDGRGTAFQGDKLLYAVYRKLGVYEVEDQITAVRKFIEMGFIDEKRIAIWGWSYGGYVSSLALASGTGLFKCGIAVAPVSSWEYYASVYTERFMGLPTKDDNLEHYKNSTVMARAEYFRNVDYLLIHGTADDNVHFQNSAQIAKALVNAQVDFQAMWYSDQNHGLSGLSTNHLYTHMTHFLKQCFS
Prolyl endopeptidase, Prolyl Oligopeptidase (hPREP), sequence (P48147 whole entry): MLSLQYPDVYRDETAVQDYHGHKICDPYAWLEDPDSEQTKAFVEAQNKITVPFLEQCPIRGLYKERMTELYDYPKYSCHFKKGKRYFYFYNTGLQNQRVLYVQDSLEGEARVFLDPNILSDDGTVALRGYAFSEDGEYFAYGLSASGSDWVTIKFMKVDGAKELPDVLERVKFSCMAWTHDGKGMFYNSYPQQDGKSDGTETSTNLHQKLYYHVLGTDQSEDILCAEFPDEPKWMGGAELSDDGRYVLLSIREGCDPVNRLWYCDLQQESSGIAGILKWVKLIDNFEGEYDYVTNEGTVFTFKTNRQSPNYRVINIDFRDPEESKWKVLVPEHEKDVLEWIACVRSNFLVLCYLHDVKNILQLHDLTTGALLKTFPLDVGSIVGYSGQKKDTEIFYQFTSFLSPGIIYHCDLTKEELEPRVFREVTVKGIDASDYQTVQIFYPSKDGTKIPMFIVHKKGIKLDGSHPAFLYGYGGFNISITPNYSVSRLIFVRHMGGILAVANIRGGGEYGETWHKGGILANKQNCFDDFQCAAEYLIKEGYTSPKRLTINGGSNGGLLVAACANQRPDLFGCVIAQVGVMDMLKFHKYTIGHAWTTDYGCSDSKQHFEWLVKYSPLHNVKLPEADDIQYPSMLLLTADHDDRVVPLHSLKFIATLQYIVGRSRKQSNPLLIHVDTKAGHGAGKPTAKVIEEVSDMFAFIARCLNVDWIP

Regarding `COC1CCN(c2ccc3nccc(C(=O)NCC(=O)N4CSC[C@H]4C#N)c3c2)CC1` [Example 8, (R)—N-(2-(4-Cyanothiazolidin-3-yl)-2-oxoethyl)-6-(4-methoxypiperidin-1-yl)quinoline-4-carboxamide], the IC50 in data set [1] is above 100000 nM; in data set [2] it was 0.2 nM.

For the compound `N#C[C@@H]1CSCN1C(=O)CNC(=O)c1ccnc2ccc(N3CCOCC3)cc12` [Example 67, (R)—N-(2-(4-Cyanothiazolidin-3-yl)-2-oxoethyl)-6-morpholinoquinoline-4-carboxamide], the results for the IC50 in [1], in data set [2] and in [3] were 33000 nM, 0.52 nM and 0.18 nM, respectively.

In the case of `N#C[C@@H]1CSCN1C(=O)CNC(=O)c1ccnc2ccc(N3CCC(F)CC3)cc12` [Example 205, (R)—N-(2-(4-Cyanothiazolidin-3-yl)-2-oxoethyl)-6-(4-fluoropiperidin-1-yl)quinoline-4-carboxamide], the IC50 in [4] is 640 nM; in data set [2] it was 0.3 nM; in data set [3], 1.2 nM. For the same compound, the “hFAP Binding assay k(off)” value in data set [5] is 0.000046 s⁻¹. Also, the “hFAP Binding assay k(on)” value in [5] came out at 2100000 M⁻¹ s⁻¹.

For `N#C[C@@H]1CSCN1C(=O)CNC(=O)c1ccnc2ccc(N3CCC4(CCCCC4)OC3=O)cc12` [Example 110, (R)—N-(2-(4-cyanothiazolidin-3-yl)-2-oxoethyl)-6-(2-oxo-1-oxa-3-azaspiro[5.5]undecan-3-yl)quinoline-4-carboxamide], the IC50 in data set [1] is above 100000 nM. In addition, the “rHep CLint” value in data set [6] was 3.3 μL/min/1E6. In [7], this compound gave a microsomal CLint of 39 µL/min/mg. In addition, the concentration in solution in data set [8] (solubility) was 950 µM (≈ 469 µg/mL).

`N#C[C@@H]1CSCN1C(=O)CNC(=O)c1ccnc2ccc(-c3cnn(C4CC4)c3)cc12` [Example 170, (R)—N-(2-(4-Cyanothiazolidin-3-yl)-2-oxoethyl)-6-(1-cyclopropyl-1H-pyrazol-4-yl)quinoline-4-carboxamide]: the half-maximal inhibitory concentration (IC50) in [4] was 260 nM; in data set [2] it was 0.5 nM; in data set [3] it was 8.7 nM. Besides, the “hFAP Binding assay k(off)” value in data set [5] was determined as 0.00018 s⁻¹. In addition, in data set [5], the “hFAP Binding assay k(on)” value worked out at 10000000 M⁻¹ s⁻¹.

As for `Cc1nn(C)cc1-c1ccc2nccc(C(=O)NCC(=O)N3CSC[C@H]3C#N)c2c1` [Example 171, (R)—N-(2-(4-Cyanothiazolidin-3-yl)-2-oxoethyl)-6-(1,3-dimethyl-1H-pyrazol-4-yl)quinoline-4-carboxamide], the IC50 in data set [1] is above 100000 nM; in [2], 0.3 nM; in data set [3] it was 2.5 nM.

As for `N#C[C@@H]1CSCN1C(=O)CNC(=O)c1ccnc2ccc(-c3ccc(C(F)F)nc3)cc12` [Example 169, (R)—N-(2-(4-cyanothiazolidin-3-yl)-2-oxoethyl)-6-(6-(difluoromethyl)pyridin-3-yl)quinoline-4-carboxamide], the IC50 amounted to 440 nM in [4], 0.057 nM in data set [9], 0.22 nM in data set [10] and 1.4 nM in data set [3]. The “rHep CLint” value in data set [6] came to 8.8 μL/min/1E6. In data set [7] (setting [14]), this compound returned a microsomal CLint of 18 µL/min/mg. For the same compound, in [5], the “hFAP Binding assay k(off)” value is 0.00096 s⁻¹. Also, the “hFAP Binding assay k(on)” value in [5] was determined as 6200000 M⁻¹ s⁻¹. This compound had a Kd in data set [5] of 0.16 nM. For the same compound, the concentration in solution in data set [8] (setting [15]) (solubility) came to 26 µM (≈ 11.8 µg/mL).

`N#C[C@@H]1CSCN1C(=O)CNC(=O)c1ccnc2ccc(N3CCC4(CCCC4)OC3=O)cc12` [Example 111, (R)—N-(2-(4-cyanothiazolidin-3-yl)-2-oxoethyl)-6-(7-oxo-6-oxa-8-azaspiro[4.5]decan-8-yl)quinoline-4-carboxamide]: in data set [1], the IC50 was above 100000 nM.

In the case of `N#C[C@@H]1CSCN1C(=O)CNC(=O)c1ccnc2ccc(N3C4CCC3COC4)cc12` [Example 98, 6-(3-Oxa-8-azabicyclo[3.2.1]octan-8-yl)-N-(2-((R)-4-cyanothiazolidin-3-yl)-2-oxoethyl)quinoline-4-carboxamide], in data set [4], the IC50 was determined as 790 nM. Also, the “rHep CLint” value in [6] is 13 μL/min/1E6. Besides, the microsomal CLint in data set [7] (setting [14]) worked out at 26 µL/min/mg. Further, in [5], the “hFAP Binding assay k(off)” value worked out at 0.000015 s⁻¹, the “hFAP Binding assay k(on)” value was found to be 1600000 M⁻¹ s⁻¹ and the Kd worked out at 0.0088 nM. Besides, the IC50 in data set [2] stood at 0.4 nM. In data set [11], this compound returned a half-inhibitory concentration (IC50) of 0.2 nM. This compound came in with an IC50 in [9] of 0.11 nM. Also, in data set [12], the Papp was 8.6 ×10⁻⁶ cm/s, the Papp A→B amounted to 0.71 ×10⁻⁶ cm/s, the Papp B→A turned out to be 18 ×10⁻⁶ cm/s and the efflux ratio stood at 25. For the same compound, half-maximal inhibition in [10] (IC50) required 0.27 nM. In data set [8] (setting [15]), this compound gave a solubility above 1000 µM. In data set [13], the “hHep CLint” value was found to be 1.8 μL/min/1E6.

With `N#C[C@@H]1CSCN1C(=O)CNC(=O)c1ccnc2ccc(N3CC(CF)C3)cc12` [Example 113, (R)—N-(2-(4-Cyanothiazolidin-3-yl)-2-oxoethyl)-6-(3-(fluoromethyl)azetidin-1-yl)quinoline-4-carboxamide], the IC50 in [4] came to 490 nM. For the same compound, the “rHep CLint” value in data set [6] is 11 μL/min/1E6. The compound further came in with a microsomal CLint in data set [7] (setting [14]) below 3 µL/min/mg. For the same compound, in data set [5], the “hFAP Binding assay k(off)” value was found to be 0.000045 s⁻¹, the “hFAP Binding assay k(on)” value was 1500000 M⁻¹ s⁻¹ and the Kd amounted to 0.031 nM. This compound also gave an IC50 in [2] of 0.5 nM. For the same compound, in data set [11], the IC50 turned out to be 0.2 nM. The compound further showed an IC50 in [9] of 0.12 nM. Also, in data set [12], the Papp came out at 20 ×10⁻⁶ cm/s, the Papp A→B was determined as 1.9 ×10⁻⁶ cm/s, the Papp B→A amounted to 23 ×10⁻⁶ cm/s and the efflux ratio was determined as 12. For the same compound, the IC50 in data set [10] is 0.25 nM. Also, in data set [3], the midpoint of inhibition, the IC50, lay at 2 nM. This compound showed a solubility in data set [8] (setting [15]) of 71 µM (≈ 29.4 µg/mL). Moreover, the “hHep CLint” value in data set [13] is recorded as below 1.5 μL/min/1E6.

With `N#C[C@@H]1CSCN1C(=O)CNC(=O)c1ccnc2ccc(N3CC4(C3)OCCO4)cc12` [Example 163, (R)—N-(2-(4-Cyanothiazolidin-3-yl)-2-oxoethyl)-6-(5,8-dioxa-2-azaspiro[3.4]octan-2-yl)quinoline-4-carboxamide], the IC50 in data set [1] was above 100000 nM; in data set [2] it was 0.2 nM; in data set [3], 3 nM.

For `COC1(C)CN(c2ccc3nccc(C(=O)NCC(=O)N4CSC[C@H]4C#N)c3c2)C1` [Example 151, (R)—N-(2-(4-Cyanothiazolidin-3-yl)-2-oxoethyl)-6-(3-methoxy-3-methylazetidin-1-yl)quinoline-4-carboxamide], the IC50 was above 100000 nM in [1], 0.4 nM in data set [2] and 3.3 nM in [3].
